In the supplement of paper PMC10307832:

Assays:
Test in all cases: relative viability (nuclei count vs DMSO), 5 days (fraction); higher = more cells survive
EKVX = system: EKVX
Summary of the method: (§1)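 For relative viability, nuclei counts in treated wells were divided by those in vehicle wells. Lung cancer cell lines had been pin-tool dosed in 1536-well plates the day after seeding and cultured for 5 days, then fixed and stained in one step (final 0.05% Triton X-100, 1% formaldehyde, 1 ug/ml Hoechst) and imaged at 4×. Doses were one drug alone or a fixed anchor-drug dose plus five library-drug doses (not always all listed) in √10 steps, and values are duplicate-plate medians.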

NCI-H1563 = system: NCI-H1563
Summary of the method: as §1

EMC-BAC-2 = system: EMC-BAC-2
Summary of the method: as §1

NCI-H322M = system: NCI-H322M
Summary of the method: as §1

LK-2 = system: LK-2
Summary of the method: as §1

NCI-H520 = system: NCI-H520
Summary of the method: as §1

NCI-H727 = system: NCI-H727
Summary of the method: as §1

CAL-12T = system: CAL-12T
Summary of the method: as §1

ABC-1 = system: ABC-1
Summary of the method: as §1

NCI-H358 = system: NCI-H358
Summary of the method: as §1

PC-3 [JPC-3] = system: PC-3 [JPC-3]
Summary of the method: as §1

BEN = system: BEN
Summary of the method: as §1

NCI-H1651 = system: NCI-H1651
Summary of the method: as §1

NCI-H838 = system: NCI-H838
Summary of the method: as §1

COR-L 105 = system: COR-L 105
Summary of the method: as §1

LU99A = system: LU99A
Summary of the method: as §1

201T = system: 201T
Summary of the method: as §1

NCI-H460 = system: NCI-H460
Summary of the method: as §1

NCI-H2023 = system: NCI-H2023
Summary of the method: as §1

HCC-44 = system: HCC-44
Summary of the method: as §1

HCC-15 = system: HCC-15
Summary of the method: as §1

Structure (SMILES): Cc1csc(=NC2CCCCC2)n1/N=C/c1ccc(O)c(O)c1O [MIM1] + CS(=O)(=O)N1CCN(Cc2cc3nc(-c4cccc5[nH]ncc45)nc(N4CCOCC4)c3s2)CC1 [Pictilisib] (partner 1 µM)
- relative viability (EKVX; first compound 0.2 µM): 0.477
- relative viability (EKVX; first compound 0.6325 µM): 0.365
- relative viability (EKVX; first compound 2 µM): 0.463
- relative viability (EKVX; first compound 6.325 µM): 0.322
- relative viability (EKVX; first compound 20 µM): 0.351
- relative viability (NCI-H1563; first compound 0.2 µM): 0.628
- relative viability (NCI-H1563; first compound 0.6325 µM): 0.672
- relative viability (NCI-H1563; first compound 2 µM): 0.636
- relative viability (NCI-H1563; first compound 6.325 µM): 0.61
- relative viability (NCI-H1563; first compound 20 µM): 0.4
- relative viability (EMC-BAC-2; first compound 0.2 µM): 0.538
- relative viability (EMC-BAC-2; first compound 0.6325 µM): 0.479
- relative viability (EMC-BAC-2; first compound 2 µM): 0.542
- relative viability (EMC-BAC-2; first compound 6.325 µM): 0.562
- relative viability (EMC-BAC-2; first compound 20 µM): 0.238
- relative viability (NCI-H322M; first compound 0.2 µM): 0.565
- relative viability (NCI-H322M; first compound 0.6325 µM): 0.497
- relative viability (NCI-H322M; first compound 2 µM): 0.511
- relative viability (NCI-H322M; first compound 6.325 µM): 0.477
- relative viability (NCI-H322M; first compound 20 µM): 0.698
- relative viability (LK-2; first compound 0.2 µM): 0.581
- relative viability (LK-2; first compound 0.6325 µM): 0.534
- relative viability (LK-2; first compound 6.325 µM): 0.561
- relative viability (LK-2; first compound 20 µM): 0.269
- relative viability (NCI-H520; first compound 0.2 µM): 0.302
- relative viability (NCI-H520; first compound 0.6325 µM): 0.287
- relative viability (NCI-H520; first compound 2 µM): 0.295
- relative viability (NCI-H520; first compound 6.325 µM): 0.235
- relative viability (NCI-H520; first compound 20 µM): 0.246
- relative viability (NCI-H727; first compound 0.2 µM): 0.415
- relative viability (NCI-H727; first compound 0.6325 µM): 0.352
- relative viability (NCI-H727; first compound 2 µM): 0.35
- relative viability (NCI-H727; first compound 6.325 µM): 0.355
- relative viability (NCI-H727; first compound 20 µM): 0.122
- relative viability (CAL-12T; first compound 0.2 µM): 0.394
- relative viability (CAL-12T; first compound 2 µM): 0.473
- relative viability (CAL-12T; first compound 6.325 µM): 0.453
- relative viability (CAL-12T; first compound 20 µM): 0.233
- relative viability (ABC-1; first compound 0.2 µM): 0.547
- relative viability (ABC-1; first compound 0.6325 µM): 0.852
- relative viability (ABC-1; first compound 2 µM): 0.722
- relative viability (ABC-1; first compound 6.325 µM): 0.286
- relative viability (ABC-1; first compound 20 µM): 0.286
- relative viability (NCI-H358; first compound 0.2 µM): 0.309
- relative viability (NCI-H358; first compound 0.6325 µM): 0.271
- relative viability (NCI-H358; first compound 2 µM): 0.254
- relative viability (NCI-H358; first compound 6.325 µM): 0.247
- relative viability (NCI-H358; first compound 20 µM): 0.262
- relative viability (PC-3 [JPC-3]; first compound 0.2 µM): 0.759
- relative viability (PC-3 [JPC-3]; first compound 0.6325 µM): 0.763
- relative viability (PC-3 [JPC-3]; first compound 2 µM): 0.707
- relative viability (PC-3 [JPC-3]; first compound 6.325 µM): 0.619
- relative viability (PC-3 [JPC-3]; first compound 20 µM): 0.459
- relative viability (BEN; first compound 0.2 µM): 0.607
- relative viability (BEN; first compound 0.6325 µM): 0.594
- relative viability (BEN; first compound 2 µM): 0.604
- relative viability (BEN; first compound 6.325 µM): 0.531
- relative viability (BEN; first compound 20 µM): 0.279
- relative viability (NCI-H1651; first compound 0.2 µM): 0.646
- relative viability (NCI-H1651; first compound 0.6325 µM): 0.646
- relative viability (NCI-H1651; first compound 2 µM): 0.75
- relative viability (NCI-H1651; first compound 6.325 µM): 0.542
- relative viability (NCI-H1651; first compound 20 µM): 0.298
- relative viability (NCI-H838; first compound 0.2 µM): 0.415
- relative viability (NCI-H838; first compound 0.6325 µM): 0.468
- relative viability (NCI-H838; first compound 2 µM): 0.397
- relative viability (NCI-H838; first compound 6.325 µM): 0.357
- relative viability (NCI-H838; first compound 20 µM): 0.2
- relative viability (COR-L 105; first compound 0.2 µM): 0.424
- relative viability (COR-L 105; first compound 0.6325 µM): 0.366
- relative viability (COR-L 105; first compound 2 µM): 0.344
- relative viability (COR-L 105; first compound 6.325 µM): 0.384
- relative viability (COR-L 105; first compound 20 µM): 0.291
- relative viability (LU99A; first compound 0.2 µM): 0.394
- relative viability (LU99A; first compound 0.6325 µM): 0.344
- relative viability (LU99A; first compound 2 µM): 0.303
- relative viability (LU99A; first compound 6.325 µM): 0.306
- relative viability (LU99A; first compound 20 µM): 0.233
- relative viability (201T; first compound 0.2 µM): 0.688
- relative viability (201T; first compound 0.6325 µM): 0.659
- relative viability (201T; first compound 2 µM): 0.645
- relative viability (201T; first compound 6.325 µM): 0.654
- relative viability (201T; first compound 20 µM): 0.61
- relative viability (NCI-H460; first compound 0.2 µM): 0.315
- relative viability (NCI-H460; first compound 0.6325 µM): 0.348
- relative viability (NCI-H460; first compound 2 µM): 0.249
- relative viability (NCI-H460; first compound 6.325 µM): 0.329
- relative viability (NCI-H460; first compound 20 µM): 0.274
- relative viability (NCI-H2023; first compound 0.2 µM): 0.238
- relative viability (NCI-H2023; first compound 0.6325 µM): 0.26
- relative viability (NCI-H2023; first compound 2 µM): 0.226
- relative viability (NCI-H2023; first compound 6.325 µM): 0.126
- relative viability (NCI-H2023; first compound 20 µM): 0.067
- relative viability (HCC-44; first compound 0.2 µM): 0.811
- relative viability (HCC-44; first compound 0.6325 µM): 0.589
- relative viability (HCC-44; first compound 2 µM): 0.61
- relative viability (HCC-44; first compound 6.325 µM): 0.356
- relative viability (HCC-44; first compound 20 µM): 0.198
- relative viability (HCC-15; first compound 0.2 µM): 0.872
- relative viability (HCC-15; first compound 0.6325 µM): 0.455
- relative viability (HCC-15; first compound 2 µM): 0.824
- relative viability (HCC-15; first compound 6.325 µM): 0.53
- relative viability (HCC-15; first compound 20 µM): 0.11
